Assay results reported in patent US20200376138A1, “LIPID NANO PARTICLE COMPLEX COMPRISING APTIDE FUSED WITH CELL PENETRATING MATERIALS AND USE SAME” (Korea Advanced Institute of Science and Technology, priority 2019, published 2020).
Blank lines part the entries; values can stand above or below the molecule they belong to. Ends that are not written are not given here.

Tests used:
psoriasis animal model = experiment: Inhibitory effect on inflammation in imiquimod-induced psoriasis animal model; assay type: in vivo, mouse; details: day 7
Description: The nanoparticle complex prepared in Example 3 was applied on the skin of a psoriasis animal model and the inhibitory effect of the complex on inflammation caused by psoriasis was investigated. First, the hair of the ear of the mouse was removed, and imiquimod was continuously treated at the concentration of 20 mg/cm^2 for 6 days from the next day to induce psoriasis. On the other hand, on the 2nd to 6th day of the treatment of imiquimod, the nanoparticle complex of Example 3 or Comparative Example 3 was applied in a total amount of 100 μg, 50 μg per time. On the day when imiquimod and the treatment drug were treated together, the treatment drug was applied 4 hours before and after the application of imiquimod to prevent the interaction between the drugs. At this time, the groups treated with Vaseline and DW were used as the negative control, and the group applied with clobetasol propionate (CLQ) at the concentration of 20 mg/cm^2 was used as the positive control. The application of the nanoparticle complex was completed by day 6, and the inhibitory effect on inflammation was confirmed using the animal model on day 7 (FIG. 14). Particularly, the inhibitory effect on inflammation was confirmed by measuring the thickness of the ear of the animal model, the punch biopsy weight, tissue H&E test, ELISA after tissue crushing, and the extracted spleen weight. […]

MLE12 cells = experiment: Epithelial-to-myofibroblast differentiation, vimentin FACS after TGF-β; assay type: cell-based
STAT3 protein = STAT3 protein (Homo sapiens, UniProt P40763); experiment: Binding of the aptide to STAT3 protein; details: read-out: affinity of binding to STAT3 protein
STAT3 protein, sequence (P40763 whole entry, species assumed, the tested form may be a part): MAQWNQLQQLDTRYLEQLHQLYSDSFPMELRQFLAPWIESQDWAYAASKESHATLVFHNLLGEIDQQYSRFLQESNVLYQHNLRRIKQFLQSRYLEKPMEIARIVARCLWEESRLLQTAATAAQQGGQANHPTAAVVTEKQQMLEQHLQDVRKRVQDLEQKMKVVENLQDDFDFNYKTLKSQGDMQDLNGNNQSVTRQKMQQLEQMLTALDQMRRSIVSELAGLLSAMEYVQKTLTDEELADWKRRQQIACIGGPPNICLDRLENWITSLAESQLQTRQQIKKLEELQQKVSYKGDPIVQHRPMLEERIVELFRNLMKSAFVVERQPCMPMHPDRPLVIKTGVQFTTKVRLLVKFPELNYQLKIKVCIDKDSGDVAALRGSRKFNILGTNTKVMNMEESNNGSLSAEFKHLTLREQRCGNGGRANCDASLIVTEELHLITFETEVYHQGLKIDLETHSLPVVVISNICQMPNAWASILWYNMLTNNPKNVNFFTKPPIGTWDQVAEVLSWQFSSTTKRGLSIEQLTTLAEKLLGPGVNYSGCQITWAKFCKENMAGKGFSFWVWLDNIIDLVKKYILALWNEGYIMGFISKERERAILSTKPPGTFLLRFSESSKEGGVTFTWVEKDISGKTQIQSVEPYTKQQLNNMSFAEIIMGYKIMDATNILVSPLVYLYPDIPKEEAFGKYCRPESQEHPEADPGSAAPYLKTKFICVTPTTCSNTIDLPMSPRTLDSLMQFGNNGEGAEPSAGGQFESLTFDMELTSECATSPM
Description: The aptide according to the present invention can be an aptide that specifically binds to STAT3 (signal transducer and activator of transcription 3) protein, and can specifically be composed of the amino acid sequence represented by SEQ. ID. NO: 2. the aptide for STAT3 protein is stable with a size of about 5 kDa, and can bind to STAT3 protein with a high affinity of 200 nM. The aptide for STAT3 protein can inhibit the activation of STAT3 protein by binding to SH2 domain of STAT3 protein and suppressing the phosphorylation. This mechanism may have less effect on an inaccurate target than a conventional JAK inhibitor that inhibits the activation of STAT3 protein using the JAK inhibitory mechanism.

[1] = test system: MLE12 lung epithelial cells; experiment: Lung epithelial cell uptake (confocal, FACS); assay type: cell-based; details: 20 μM, 4 h
Description: In vitro cell uptake of FITC-APTstat3-9R and FITC-APTstat3-9R-DLNPs was determined by confocal microscopy imaging and FACS analysis. For confocal imaging, MLE12 cells were seeded on sterile cover glass in 12-well plate at 5×10^5 cells/well density followed by overnight incubation. The cells were treated with PBS, FITC-APTstat3-9R (20 μM), or FITC-APTstat3-9R-DLNPs (20 μM) for 4 h. The samples were washed twice with 1×PBS to discard free aptides. Subsequent sample preparation and analysis were described previously in in vitro macrophage polarization analysis section. For FACS experiment, MLE 12 cells were seeded in a 6-well plate at 3×10^5 cells/well density and incubated overnight for stabilization. The samples were treated with PBS, FITC-APTstat3-9R (20 μM), or FITC-APTstat3-9R-DLNPs (20 μM) for 4 h, washed, and collected using trypsin. The following steps were previously detailed in in vitro macrophage polarization analysis.

RAW264.7 cells = experiment: M2 polarization of IL-10 stimulated macrophages, CD163 FACS; assay type: cell-based, mouse; details: 20 μM, IL-10 stimulation 48 h
Description: To perform FACS analysis, mouse macrophage cell line (RAW264.7) was seeded in a 6-well plate at 2×10^5 cells/well density and incubated overnight for stabilization. In order to induce M2-type polarization, the samples were stimulated with IL-10 for 48 h in a 37° C.-maintained, 5% CO2 incubator. PBS, APTscr-9R(20 μM), and APTstat3-9R(20 μM) were simultaneously accordingly added for co-treatment. After the incubation, the specimens were collected and incubated for 30 min with 10% BSA in PBS to block non-specific binding of antibodies. After blocking, the samples were washed with three changes of 1×PBS for 5 min each. The collected specimens were resuspended in a 1 mL of separation buffer. The cells were collected in the filter tubes with strainer ([…]). After buffer removal, direct immunostaining was performed using phycoerythrin-cojugated CD163 monoclonal primary antibody (Invitrogen, Waltham, Mass., USA) at […] with 90 min incubation at 4° C. Upon the incubation, the cells were once again washed with three changes of 1×PBS for 5 min. […] The samples (20,000 cells) were analyzed using a LSR Fortessa™ high-performance multi-parameter flow cytometer (BD Bioscience, San Jose, Calif., USA) processed with FlowJo software (Tree Star Inc., San Carlos, Calif., USA).

size and weight of the spleen (psoriasis animal model): shrivelled
Molecule: CCC(=O)O[C@]1(C(=O)CCl)[C@@H](C)C[C@H]2[C@@H]3CCC4=CC(=O)C=C[C@]4(C)[C@@]3(F)[C@@H](O)C[C@@]21C [CLQ, clobetasol propionate]

Molecule: APTscr-9R: control aptide, SEQ ID NO:9; b173 calls it a lipid nanoparticle complex prepared as Example 3 with this aptide (HASDRNGSWTWENGKWTWKGLHEQSD; also: part of a lipid nanoparticle complex) [reference compound]
vimentin marker level after stimulation (MLE12 cells): vastly increased

Kd (STAT3 protein): 200 nM
Molecule: HGFQWPGSWTWENGKWTWKGAYQFLK [aptide for STAT3 protein]

Molecule: HGFQWPGSWTWENGKWTWKGAYQFLKGGGGSRRRRRRRRR (Aptide against STAT3 fused with nona-arginine) [APTstat3-9R]
vimentin marker level after stimulation (MLE12 cells): fairly decreased | reduction of vimentin level compared to PBS treated group (MLE12 cells; TGF-β stimulation): approximately 29% | uptake into MLE 12 lung epithelial cells (confocal images) [1]: uptaken | increase in CD163 level (M2 macrophage specific marker) (RAW264.7 cells): not upregulated
